Measurements taken from ChEMBL document CHEMBL3046161, “Synthesis of potential antitubercular and antimicrobial s-triazine-based scaffolds via Suzuki cross-coupling reaction” (2013).
In brackets after ≈: the same amount, converted by molar mass.

Tests used:
Type in all cases: functional
Salmonella typhi [1] = test: Antibacterial activity against Salmonella enterica subsp. enterica serovar Typhi MTCC 733 assessed as growth inhibition at 3.12 to 50 ug/mL after 24 hr by agar disk diffusion method
Klebsiella pneumoniae [2] = test: Antibacterial activity against Klebsiella pneumoniae MTCC 109 assessed as growth inhibition at 3.12 to 50 ug/mL after 24 hr by agar disk diffusion method
Klebsiella pneumoniae [3] = test: Antibacterial activity against Klebsiella pneumoniae MTCC 109 assessed as growth inhibition after 24 hr by agar streak dilution method; settings: MTCC 109, 24 h
Salmonella typhi [4] = test: Antibacterial activity against Salmonella enterica subsp. enterica serovar Typhi MTCC 733 assessed as growth inhibition after 24 hr by agar streak dilution method; settings: MTCC 733, 24 h
Pseudomonas aeruginosa [5] = test: Antibacterial activity against Pseudomonas aeruginosa MTCC 741 assessed as growth inhibition after 24 hr by agar streak dilution method; settings: MTCC 741, 24 h
Escherichia coli [6] = test: Antibacterial activity against Escherichia coli MTCC 739 assessed as growth inhibition after 24 hr by agar streak dilution method; settings: MTCC 739, 24 h
Bacillus cereus [7] = test: Antibacterial activity against Bacillus cereus MTCC 430 assessed as growth inhibition after 24 hr by agar streak dilution method; settings: MTCC 430, 24 h
Staphylococcus aureus [8] = test: Antibacterial activity against Staphylococcus aureus MTCC 96 assessed as growth inhibition after 24 hr by agar streak dilution method; settings: MTCC 96, 24 h
[9] = test system: Mycobacterium tuberculosis; test: Antimycobacterial activity against Mycobacterium tuberculosis H37Rv assessed as growth inhibition at MIC after 12 to 28 days by Lowenstein and Jensen agar dilution method
[10] = test system: Mycobacterium tuberculosis; test: Antimycobacterial activity against Mycobacterium tuberculosis H37Rv assessed as growth inhibition after 12 to 28 days by Lowenstein and Jensen agar dilution method
[11] = test system: Mycobacterium tuberculosis; test: Antimycobacterial activity against Mycobacterium tuberculosis H37Rv assessed as growth inhibition measured within 10 days by BACTEC MGIT method; settings: 240 h
Candida albicans [12] = test: Antifungal activity against Candida albicans MTCC 183 assessed as growth inhibition at 3.12 to 50 ug/mL after 24 hr by agar disk diffusion method
Aspergillus clavatus [13] = test: Antifungal activity against Aspergillus clavatus MTCC 1323 assessed as growth inhibition at 3.12 to 50 ug/mL after 24 hr by agar disk diffusion method
Aspergillus fumigatus [14] = test: Antifungal activity against Aspergillus fumigatus MTCC 343 assessed as growth inhibition at 3.12 to 50 ug/mL after 24 hr by agar disk diffusion method
Aspergillus niger [15] = test: Antifungal activity against Aspergillus niger MTCC 282 assessed as growth inhibition at 3.12 to 50 ug/mL after 24 hr by agar disk diffusion method
Candida albicans [16] = test: Antifungal activity against Candida albicans MTCC 183 assessed as growth inhibition after 48 hr by agar streak dilution method; settings: MTCC 183, 48 h
Aspergillus clavatus [17] = test: Antifungal activity against Aspergillus clavatus MTCC 1323 assessed as growth inhibition after 48 hr by agar streak dilution method; settings: MTCC 1323, 48 h
Aspergillus fumigatus [18] = test: Antifungal activity against Aspergillus fumigatus MTCC 343 assessed as growth inhibition after 48 hr by agar streak dilution method; settings: MTCC 343, 48 h
Aspergillus niger [19] = test: Antifungal activity against Aspergillus niger MTCC 282 assessed as growth inhibition after 48 hr by agar streak dilution method; settings: MTCC 282, 48 h
Shigella flexneri [20] = test: Antibacterial activity against Shigella flexneri MTCC 1457 assessed as growth inhibition at 3.12 to 50 ug/mL after 24 hr by agar disk diffusion method
Proteus vulgaris [21] = test: Antibacterial activity against Proteus vulgaris MTCC 1771 assessed as growth inhibition at 3.12 to 50 ug/mL after 24 hr by agar disk diffusion method
Pseudomonas aeruginosa [22] = test: Antibacterial activity against Pseudomonas aeruginosa MTCC 741 assessed as growth inhibition at 3.12 to 50 ug/mL after 24 hr by agar disk diffusion method
Escherichia coli [23] = test: Antibacterial activity against Escherichia coli MTCC 739 assessed as growth inhibition at 3.12 to 50 ug/mL after 24 hr by agar disk diffusion method
Bacillus cereus [24] = test: Antibacterial activity against Bacillus cereus MTCC 430 assessed as growth inhibition at 3.12 to 50 ug/mL after 24 hr by agar disk diffusion method
Staphylococcus aureus [25] = test: Antibacterial activity against Staphylococcus aureus MTCC 96 assessed as growth inhibition at 3.12 to 50 ug/mL after 24 hr by agar disk diffusion method
Shigella flexneri [26] = test: Antibacterial activity against Shigella flexneri MTCC 1457 assessed as growth inhibition after 24 hr by agar streak dilution method; settings: MTCC 1457, 24 h
Proteus vulgaris [27] = test: Antibacterial activity against Proteus vulgaris MTCC 1771 assessed as growth inhibition after 24 hr by agar streak dilution method; settings: MTCC 1771, 24 h

Compound: CC1CC(C)CN(c2nc(-c3ccc(NCC(=O)Nc4ccc(I)cc4)cc3)nc(N3CC(C)CC(C)C3)n2)C1 (stereo not drawn)
- inhibition zone (IZ) (Salmonella typhi [1]): 17 mm
- inhibition zone (IZ) (Klebsiella pneumoniae [2]): 23 mm
- MIC (Klebsiella pneumoniae [3]): 50 µg/mL (≈ 76.5 µM)
- MIC (Salmonella typhi [4]): 50 µg/mL (≈ 76.5 µM)
- MIC (Pseudomonas aeruginosa [5]): 25 µg/mL (≈ 38.2 µM)
- MIC (Escherichia coli [6]): 50 µg/mL (≈ 76.5 µM)
- MIC (Bacillus cereus [7]): 50 µg/mL (≈ 76.5 µM)
- MIC (Staphylococcus aureus [8]): 50 µg/mL (≈ 76.5 µM)
- growth inhibition (GI) [9]: 95%
- MIC [10]: 250 µg/mL (≈ 382 µM)
- MIC [11]: > 6.25 µg/mL
- inhibition zone (IZ) (Candida albicans [12]): <10 mm
- inhibition zone (IZ) (Aspergillus clavatus [13]): <10 mm
- inhibition zone (IZ) (Aspergillus fumigatus [14]): 16 mm
- inhibition zone (IZ) (Aspergillus niger [15]): <10 mm
- MIC (Candida albicans [16]): > 50 µg/mL
- MIC (Aspergillus clavatus [17]): > 50 µg/mL
- MIC (Aspergillus fumigatus [18]): 50 µg/mL (≈ 76.5 µM)
- MIC (Aspergillus niger [19]): 50 µg/mL (≈ 76.5 µM)
- inhibition zone (IZ) (Shigella flexneri [20]): 20 mm
- inhibition zone (IZ) (Proteus vulgaris [21]): 23 mm
- inhibition zone (IZ) (Pseudomonas aeruginosa [22]): 24 mm
- inhibition zone (IZ) (Escherichia coli [23]): <10 mm
- inhibition zone (IZ) (Bacillus cereus [24]): 16 mm
- inhibition zone (IZ) (Staphylococcus aureus [25]): 17 mm
- MIC (Shigella flexneri [26]): 50 µg/mL (≈ 76.5 µM)
- MIC (Proteus vulgaris [27]): 25 µg/mL (≈ 38.2 µM)

Compound: CC(=O)Nc1ccc(NC(=O)CNc2ccc(-c3nc(N4CC(C)CC(C)C4)nc(N4CC(C)CC(C)C4)n3)cc2)cc1 (stereo not drawn)
- inhibition zone (IZ) (Salmonella typhi [1]): <10 mm
- inhibition zone (IZ) (Klebsiella pneumoniae [2]): <10 mm
- MIC (Klebsiella pneumoniae [3]): 50 µg/mL (≈ 85.5 µM)
- MIC (Salmonella typhi [4]): 50 µg/mL (≈ 85.5 µM)
- MIC (Pseudomonas aeruginosa [5]): 50 µg/mL (≈ 85.5 µM)
- MIC (Escherichia coli [6]): 50 µg/mL (≈ 85.5 µM)
- MIC (Bacillus cereus [7]): 50 µg/mL (≈ 85.5 µM)
- MIC (Staphylococcus aureus [8]): 50 µg/mL (≈ 85.5 µM)
- growth inhibition (GI) [9]: 95%
- MIC [10]: 62.5 µg/mL (≈ 107 µM)
- MIC [11]: > 6.25 µg/mL
- inhibition zone (IZ) (Candida albicans [12]): 17 mm
- inhibition zone (IZ) (Aspergillus clavatus [13]): 19 mm
- inhibition zone (IZ) (Aspergillus fumigatus [14]): 12 mm
- inhibition zone (IZ) (Aspergillus niger [15]): 22 mm
- MIC (Candida albicans [16]): 50 µg/mL (≈ 85.5 µM)
- MIC (Aspergillus clavatus [17]): 50 µg/mL (≈ 85.5 µM)
- MIC (Aspergillus fumigatus [18]): 50 µg/mL (≈ 85.5 µM)
- MIC (Aspergillus niger [19]): 12.5 µg/mL (≈ 21.4 µM)
- inhibition zone (IZ) (Shigella flexneri [20]): 16 mm
- inhibition zone (IZ) (Proteus vulgaris [21]): 27 mm
- inhibition zone (IZ) (Pseudomonas aeruginosa [22]): 19 mm
- inhibition zone (IZ) (Escherichia coli [23]): 20 mm
- inhibition zone (IZ) (Bacillus cereus [24]): 12 mm
- inhibition zone (IZ) (Staphylococcus aureus [25]): <10 mm
- MIC (Shigella flexneri [26]): 50 µg/mL (≈ 85.5 µM)
- MIC (Proteus vulgaris [27]): 6.25 µg/mL (≈ 10.7 µM)

Compound: CC1CC(C)CN(c2nc(-c3ccc(NCC(=O)Nc4nc5ccccc5s4)cc3)nc(N3CC(C)CC(C)C3)n2)C1 (stereo not drawn)
- inhibition zone (IZ) (Salmonella typhi [1]): 12 mm
- inhibition zone (IZ) (Klebsiella pneumoniae [2]): <10 mm
- MIC (Klebsiella pneumoniae [3]): 50 µg/mL (≈ 85.5 µM)
- MIC (Salmonella typhi [4]): 50 µg/mL (≈ 85.5 µM)
- MIC (Pseudomonas aeruginosa [5]): 50 µg/mL (≈ 85.5 µM)
- MIC (Escherichia coli [6]): 50 µg/mL (≈ 85.5 µM)
- MIC (Bacillus cereus [7]): 50 µg/mL (≈ 85.5 µM)
- MIC (Staphylococcus aureus [8]): 50 µg/mL (≈ 85.5 µM)
- growth inhibition (GI) [9]: 94%
- MIC [10]: 500 µg/mL (≈ 855 µM)
- MIC [11]: > 6.25 µg/mL
- inhibition zone (IZ) (Candida albicans [12]): <10 mm
- inhibition zone (IZ) (Aspergillus clavatus [13]): <10 mm
- inhibition zone (IZ) (Aspergillus fumigatus [14]): <10 mm
- inhibition zone (IZ) (Aspergillus niger [15]): <10 mm
- MIC (Candida albicans [16]): > 50 µg/mL
- MIC (Aspergillus clavatus [17]): > 50 µg/mL
- MIC (Aspergillus fumigatus [18]): > 50 µg/mL
- MIC (Aspergillus niger [19]): 50 µg/mL (≈ 85.5 µM)
- inhibition zone (IZ) (Shigella flexneri [20]): <10 mm
- inhibition zone (IZ) (Proteus vulgaris [21]): 18 mm
- inhibition zone (IZ) (Pseudomonas aeruginosa [22]): 16 mm
- inhibition zone (IZ) (Escherichia coli [23]): 14 mm
- inhibition zone (IZ) (Bacillus cereus [24]): 14 mm
- inhibition zone (IZ) (Staphylococcus aureus [25]): 16 mm
- MIC (Shigella flexneri [26]): 50 µg/mL (≈ 85.5 µM)
- MIC (Proteus vulgaris [27]): 50 µg/mL (≈ 85.5 µM)

Compound: CC1CC(C)CN(c2nc(-c3ccc(NCC(=O)Nc4ccc([N+](=O)[O-])cc4)cc3)nc(N3CC(C)CC(C)C3)n2)C1 (stereo not drawn)
- inhibition zone (IZ) (Salmonella typhi [1]): 15 mm
- inhibition zone (IZ) (Klebsiella pneumoniae [2]): 12 mm
- MIC (Klebsiella pneumoniae [3]): 50 µg/mL (≈ 87.3 µM)
- MIC (Salmonella typhi [4]): 50 µg/mL (≈ 87.3 µM)
- MIC (Pseudomonas aeruginosa [5]): 50 µg/mL (≈ 87.3 µM)
- MIC (Escherichia coli [6]): 50 µg/mL (≈ 87.3 µM)
- MIC (Bacillus cereus [7]): 50 µg/mL (≈ 87.3 µM)
- MIC (Staphylococcus aureus [8]): 12.5 µg/mL (≈ 21.8 µM)
- growth inhibition (GI) [9]: 94%
- MIC [10]: 100 µg/mL (≈ 175 µM)
- MIC [11]: > 6.25 µg/mL
- inhibition zone (IZ) (Candida albicans [12]): 13 mm
- inhibition zone (IZ) (Aspergillus clavatus [13]): 24 mm
- inhibition zone (IZ) (Aspergillus fumigatus [14]): 18 mm
- inhibition zone (IZ) (Aspergillus niger [15]): 18 mm
- MIC (Candida albicans [16]): 50 µg/mL (≈ 87.3 µM)
- MIC (Aspergillus clavatus [17]): 50 µg/mL (≈ 87.3 µM)
- MIC (Aspergillus fumigatus [18]): 50 µg/mL (≈ 87.3 µM)
- MIC (Aspergillus niger [19]): 50 µg/mL (≈ 87.3 µM)
- inhibition zone (IZ) (Shigella flexneri [20]): 17 mm
- inhibition zone (IZ) (Proteus vulgaris [21]): 13 mm
- inhibition zone (IZ) (Pseudomonas aeruginosa [22]): 20 mm
- inhibition zone (IZ) (Escherichia coli [23]): 13 mm
- inhibition zone (IZ) (Bacillus cereus [24]): 16 mm
- inhibition zone (IZ) (Staphylococcus aureus [25]): 20 mm
- MIC (Shigella flexneri [26]): 50 µg/mL (≈ 87.3 µM)
- MIC (Proteus vulgaris [27]): 50 µg/mL (≈ 87.3 µM)
